Laboratory results as given in patent US20260265279A1, “RHO-ASSOCIATED PROTEIN KINASE INHIBITOR AND PREPARATION AND USE THEREOF” (Shanghai Zhimeng Biopharma, Inc, priority 2022, published 2026).

Experiments:
ROCK2 = biological target: T1, ROCK2 (Homo sapiens, UniProt O75116); test: Kinase IC50 assay, HTRF kinEASE STK S2 kit, ROCK2; format: biochemical; settings: ATP 1 μM, 2.5 ng/well enzyme, 120 min
T1 construct: purchased Invitrogen PV3759
Description: (§1) Kinase IC50 assay was performed using the kinase assay kit HTRF kinEASE STK S2 kit (Cat #62ST2PEC, Cisbio). Kinases ROCK1 (Cat #PV3691) and ROCK2 (Cat #PV3759) were purchased from Invitrogen.
(§2) The working solution required for the assay was prepared with the appropriate reagents as described in the kinase assay kit instructions:
(§3) 1 mL of 1× Kinase Buffer contains 200 μL 5× Enzyme buffer, 5 μL 1M MgCl2 (Cat.M8266, Sigma), 1 μL 1M DTT (Cat.D5545, Sigma), 794 μL ddH2O.
(§4) The specific concentrations of STK-biotin substrate and ATP are shown in Table A. STK-biotin substrate and ATP were diluted with 1× kinase buffer to 2.5 times of the reaction concentration.
(§5) Concentrations of ROCK1/ROCK2 are shown in Table A. 5×ROCK1/ROCK2 Kinase working solution was prepared with 1× Kinase Buffer.
(§6) See Table A for the concentrations of Streptavidin-XL665 and STK Antibody-Cryptate in the reaction. 2× Streptavidin-XL665 and STK Antibody-Cryptate Working Solutions were prepared 5 minutes prior to the end of the kinase reaction using Detection Buffer from the kit.
(§7) A 100 μM compound mother solution was prepared using 1× kinase buffer containing 2.5% DMSO, and the mother solution was diluted 4-fold stepwise with the above DMSO-containing kinase buffer to obtain nine different concentrations of the compound solutions to be tested. In addition to the test compound wells, positive control wells (containing all reagents except the compounds) and negative control wells (containing all reagents except the compounds and kinase) were set up. 4 μL of the test compound solution was added to all reaction wells except the control wells and 4 μL of 2.5% DMSO solution was added to the control wells. Then 4 μL of previously prepared substrate and ATP working solution were added to all wells and mix well. Then, 2 μL/well of 5×ROCK1/ROCK2 kinase working solution (containing 2.5 ng ROCK1/ROCK2 kinase) was added to all reaction wells except negative control wells, and the negative control wells were made up to volume with 2 μL of 1× kinase buffer. Mix well, seal with plastic film and incubate at room temperature for 2 hours. Start preparing the assay solution 5 minutes before the end of the kinase reaction. After the end of the kinase reaction, 10 μL of prepared Streptavidin-XL665 and STK Antibody-Cryptate working solution were added to all reaction wells, the plates were sealed and mixed well, and then incubated at room temperature for 1 hour. Finally, the fluorescence signal was detected by SpectraMax i3x Multi-Mode Reader (Molecular Devices) (excitation wavelength is 320 nm, emission wavelength is 665 nm and 615 nm).
(§8) The inhibition rate in each well was calculated from the fluorescence intensity values of each well:
(§9) ER Emission Ratio, Emission light ratio=fluorescence intensity at 665 nm/fluorescence intensity at 615 nm;
(§10) ERcompound, ER of test compound wells; ERvehicle, ER of solvent (positive) control wells, ERblank, ER of blank (negative) control wells.
(§11) The graphs were plotted using the software GraphPad Prism 6.0, while the half inhibitory concentration (IC50) of each compound to be tested was obtained by fitting with Prism 6.0.

ROCK1 = biological target: T2, ROCK1 (Homo sapiens, UniProt Q13464); test: Kinase IC50 assay, HTRF kinEASE STK S2 kit, ROCK1; format: biochemical; settings: ATP 1.5 μM, 2.5 ng/well enzyme, 120 min
T2 construct: purchased Invitrogen PV3691
T2 sequence (Q13464 1-535 limits assumed): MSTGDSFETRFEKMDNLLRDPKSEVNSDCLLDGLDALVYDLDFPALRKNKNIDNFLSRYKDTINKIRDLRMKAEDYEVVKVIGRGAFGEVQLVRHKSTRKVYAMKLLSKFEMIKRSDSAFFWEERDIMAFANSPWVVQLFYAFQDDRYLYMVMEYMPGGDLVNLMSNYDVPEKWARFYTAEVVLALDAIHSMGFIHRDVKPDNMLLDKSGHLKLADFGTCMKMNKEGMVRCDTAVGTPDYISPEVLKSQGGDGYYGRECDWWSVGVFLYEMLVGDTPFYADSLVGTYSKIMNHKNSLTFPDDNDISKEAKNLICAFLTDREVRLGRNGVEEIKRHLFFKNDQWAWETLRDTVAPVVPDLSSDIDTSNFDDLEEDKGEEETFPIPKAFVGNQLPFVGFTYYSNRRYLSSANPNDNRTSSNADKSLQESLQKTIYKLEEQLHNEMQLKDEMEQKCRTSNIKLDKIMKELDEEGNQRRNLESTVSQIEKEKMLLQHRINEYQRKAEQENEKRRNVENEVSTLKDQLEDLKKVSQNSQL
Description: as §1, §2, §3, §4, §5, §6, §7, §8, §9, §10, §11

[1] = Pharmacokinetic study in male SD rats; format: in vivo; settings: rat, plasma
Description: 1) Purpose of the Study: Obtain the Pharmacokinetic Characterization of the Compounds of the Present Invention in Male SD Rats
For each compound, 6 healthy male SD rats (weight range 200-250 g) was taken and divided into 2 groups of 3 each; Group 1 was administered intravenously in a single dose (see Table 2 for dosage) and Group 2 was administered orally in a single gavage (see Table 2 for dosage, fasted overnight before administration). Blood was collected by jugular vein or cardiac puncture at 0.083 (group 1 only), 0.25, 0.5, 1, 2, 4, 6 (group 2 only), 8 and 24 h after drug administration, respectively, and at least 0.2 mL of whole blood was collected from each sample into EDTA-K2 anticoagulant tubes, and the samples were mixed and placed on wet ice after sample collection, and then centrifuged to separate plasma (6,800 g, 6 min, 2-8° C.) at 1 h. The plasma samples were stored in ultra-low temperature refrigerators before analysis.
Experimental results: The pharmacokinetic parameters after administration were calculated from the blood concentration data obtained by LC-MS/MS assay using the non-compartmental model of WinNonlin® 7.0 software (Pharsight, Inc., USA) and are shown in the table below: […]

[2] = po, gavage 10 mg/kg, fasted overnight

T1 sequence (O75116 5-554 limits assumed): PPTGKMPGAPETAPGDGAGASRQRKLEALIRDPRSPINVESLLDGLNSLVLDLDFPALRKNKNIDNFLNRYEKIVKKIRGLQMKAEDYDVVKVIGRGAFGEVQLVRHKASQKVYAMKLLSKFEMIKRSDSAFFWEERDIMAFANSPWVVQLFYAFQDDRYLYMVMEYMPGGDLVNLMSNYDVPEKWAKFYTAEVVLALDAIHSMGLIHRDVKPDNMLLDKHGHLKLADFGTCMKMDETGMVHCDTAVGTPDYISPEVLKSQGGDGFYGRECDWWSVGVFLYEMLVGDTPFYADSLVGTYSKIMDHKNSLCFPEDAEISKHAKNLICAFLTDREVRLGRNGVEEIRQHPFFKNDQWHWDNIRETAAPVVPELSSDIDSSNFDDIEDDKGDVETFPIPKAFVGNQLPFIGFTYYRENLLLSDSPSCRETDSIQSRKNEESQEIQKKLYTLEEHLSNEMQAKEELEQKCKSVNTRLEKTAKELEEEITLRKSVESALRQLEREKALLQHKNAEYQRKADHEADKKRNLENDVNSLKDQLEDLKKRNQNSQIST

IC50 (ROCK2): 0.104 µM | IC50 (ROCK1): > 100 µM | AUC(0-t) ([1]; intravenous injection 1 mg/kg): 1210 ng·h/mL | Cmax ([1]; intravenous injection 1 mg/kg): 765 ng/mL | Tmax ([1]; intravenous injection 1 mg/kg): 4.8 min | half-life ([1]; intravenous injection 1 mg/kg): 123 min | bioavailability ([1]; oral, gavage 10 mg/kg vs intravenous 1 mg/kg): 11.5% | AUC(0-t) [1, 2]: 1400 ng·h/mL | Cmax [1, 2]: 251 ng/mL | Tmax [1, 2]: 79.8 min | half-life [1, 2]: 208 min
SMILES: Cn1c(C#Cc2nccc(Nc3ccc(-c4cn[nH]c4)cc3)n2)ccc1C(=O)N1CC(F)(F)C1 [Compound A1]
